Results as given in US20080234332A1, “RAF KINASE INHIBITORS CONTAINING A ZINC BINDING MOIETY” (priority 2007, published 2008).
pIC50: −log10 of the molar value.

Key:
Assay type in all cases: biochemical
HDAC = HDAC fluorimetric assay kit (HeLa nuclear extract); conditions: read-out: HDAC IC50 grade
Method: HDAC inhibitors were screened using an HDAC fluorimetric assay kit (AK-500, Biomol, Plymouth Meeting, Pa.). […] Each assay was setup as follows: Defrosted all kit components and kept on ice until use. Diluted HeLa nuclear extract 1:29 in assay buffer (50 mM Tris/Cl, pH 8.0, 137 mM NaCl, 2.7 mM KCl, 1 mM MgCl2). Prepared dilutions of Trichostatin A (TSA, positive control) and tested compounds in assay buffer (5× of final concentration). Diluted Fluor de LysTM Substrate in assay buffer to 100 uM (50 fold=2× final). Diluted Fluor de LysTM developer concentrate 20-fold (e.g. 50 μl plus 950 μl assay buffer) in cold assay buffer. Second, diluted the 0.2 mM Trichostatin A 100-fold in the 1× Developer (e.g. 10 μl in 1 ml; final Trichostatin A concentration in the 1× Developer=2 μM; final concentration after addition to HDAC/Substrate reaction=1 μM). Added assay buffer, diluted trichostatin A or test inhibitor to appropriate wells of the microtiter plate. Added diluted HeLa extract or other HDAC sample to all wells except for negative controls. Allowed diluted Fluor de LysTM Substrate and the samples in the microtiter plate to equilibrate to assay temperature (e.g. 25 or 37° C. Initiated HDAC reactions by adding diluted substrate (25 μl) to each well and mixing thoroughly. Allowed HDAC reactions to proceed for 1 hour and then stopped them by addition of Fluor de LysTM Developer (50 μl). Incubated plate at room temperature (25° C.) for 10-15 min. Read samples in a microtiter-plate reading fluorimeter capable of excitation at a wavelength in the range 350-380 nm and detection of emitted light in the range 440-460 nm.
(§1) The following TABLE B lists compounds representative of the invention and their activity in HDAC, VEGFR2 and RAF assays.

VEGFR2 = target: T1, VEGFR2 (Homo sapiens, UniProt P35968); assay: HTScan VEGFR2 Kinase Assay (DELFIA); conditions: 200 μM ATP; read-out: VEGFR2 IC50 grade
T1 construct: GST (N); His6 (N); Thrombin cleavage site (N); purchased Cell Signaling Technologies; host or cells: baculovirus expression system
Method: The ability of compounds to inhibit VEGFR2 kinase activity was assayed using HTScan™ VEGFR2 Kinase Assay Kits (Cell Signaling Technologies, Danvers, Mass.). […] The protein was purified by one-step affinity chromatography using glutathione-agarose.
Immediately transfer enzyme from −80° C. to ice. Allowed enzyme to thaw on ice. […] Returned immediately to ice. […] Incubated reaction plate at room temperature for 30 minutes. […] Added 100 μl/well primary antibody. Incubated at room temperature for 60 minutes. […] Added 100 μl/well diluted antibody. Incubated at room temperature for 30 minutes. […] Incubated at room temperature for 5 minutes.
as §1

cKit = cKit (Homo sapiens, UniProt P10721); assay: cKit kinase inhibition (Table B); conditions: read-out: cKit IC50 grade
PDGFRβ = PDGFRβ (Homo sapiens, UniProt P09619); assay: PDGFRβ kinase inhibition (Table B); conditions: read-out: PDGFRβ IC50 grade
C-Raf = C-Raf (Homo sapiens, UniProt P04049); assay: Raf kinase assay (C-Raf kit, MEK-1 substrate, dot blot); conditions: 250 μM ATP; read-out: C-Raf IC50 grade
Method: (§2) The Raf kinase assay was performed by following the protocol of Raf kinase assay kit (B-Raf, Upstate, catalog# 17-359; C-Raf, Upstate, catalog# 17-360) with modifications. Briefly, assay buffer, ATP, substrate and Raf kinase were mixed in a 96 well assay plate. The final kinase assay mixture contained 20 mM MOPS, pH7.2, 25 mM β-glycerol phosphate, 5 mM EGTA, 1 mM sodium orthovanadate, 1 mM DTT, 250 μM ATP and 37.5 mM magnesium chloride, 0.1 μg/well of Raf kinase, and 1 μg/well of MEK-1 substrate protein. Assay samples were incubated for 30 min at room temperature. The kinase reaction was stopped by adding EDTA, pH8 to a final concentration of 25 mM. A 10 μl of the reaction sample was spotted onto nitrocellulose filter and dot blot was performed by adding 1 μg/ml of anti-phospho-MEK-1 antibody in the blocking solution (Licor Bioscience, catalogue # 927-40000). The nitrocellulose filter was subsequently incubated with secondary IRDye 800CW goat anti-rabbit antibody (Licor Bioscience, catalogue # 926-32211) before reading the signal on an Odyssey imager (Licor Bioscience).
as §1

B-Raf = target: T2, B-Raf (Homo sapiens, UniProt P15056); assay: Raf kinase assay (B-Raf kit, MEK-1 substrate, dot blot); conditions: 250 μM ATP; read-out: B-Raf IC50 grade
T2 construct: purchased Upstate 17-359
Method: as §2, §1

Chain of PDGFRβ (P09619 33-1106, species assumed): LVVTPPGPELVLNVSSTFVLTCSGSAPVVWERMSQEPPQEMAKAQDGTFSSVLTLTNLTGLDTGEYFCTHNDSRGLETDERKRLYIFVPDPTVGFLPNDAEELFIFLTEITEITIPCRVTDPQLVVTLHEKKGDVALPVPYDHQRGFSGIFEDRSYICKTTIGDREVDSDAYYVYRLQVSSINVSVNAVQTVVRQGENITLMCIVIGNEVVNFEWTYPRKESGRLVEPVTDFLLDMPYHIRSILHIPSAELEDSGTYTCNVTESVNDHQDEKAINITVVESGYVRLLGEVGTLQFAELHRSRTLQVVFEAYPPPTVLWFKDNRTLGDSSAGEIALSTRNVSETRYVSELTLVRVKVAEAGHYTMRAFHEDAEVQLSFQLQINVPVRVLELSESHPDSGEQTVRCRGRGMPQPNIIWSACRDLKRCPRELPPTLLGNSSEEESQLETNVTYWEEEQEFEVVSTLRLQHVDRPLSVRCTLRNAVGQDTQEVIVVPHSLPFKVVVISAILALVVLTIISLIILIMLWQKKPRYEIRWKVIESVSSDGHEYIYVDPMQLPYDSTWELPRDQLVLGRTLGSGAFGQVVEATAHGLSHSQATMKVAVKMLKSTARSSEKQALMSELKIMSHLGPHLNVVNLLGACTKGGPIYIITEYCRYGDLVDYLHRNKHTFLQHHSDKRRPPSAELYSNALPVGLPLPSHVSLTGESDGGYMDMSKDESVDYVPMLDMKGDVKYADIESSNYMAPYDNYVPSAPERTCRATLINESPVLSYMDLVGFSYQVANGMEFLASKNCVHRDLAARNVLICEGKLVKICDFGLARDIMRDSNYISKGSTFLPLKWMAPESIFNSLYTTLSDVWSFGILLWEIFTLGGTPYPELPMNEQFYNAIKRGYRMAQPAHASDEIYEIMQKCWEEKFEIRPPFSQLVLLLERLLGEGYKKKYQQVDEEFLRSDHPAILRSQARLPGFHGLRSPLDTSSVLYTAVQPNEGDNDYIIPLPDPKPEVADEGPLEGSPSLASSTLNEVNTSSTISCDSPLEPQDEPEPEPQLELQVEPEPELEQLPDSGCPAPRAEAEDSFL
T1 sequence (P35968 805-1356): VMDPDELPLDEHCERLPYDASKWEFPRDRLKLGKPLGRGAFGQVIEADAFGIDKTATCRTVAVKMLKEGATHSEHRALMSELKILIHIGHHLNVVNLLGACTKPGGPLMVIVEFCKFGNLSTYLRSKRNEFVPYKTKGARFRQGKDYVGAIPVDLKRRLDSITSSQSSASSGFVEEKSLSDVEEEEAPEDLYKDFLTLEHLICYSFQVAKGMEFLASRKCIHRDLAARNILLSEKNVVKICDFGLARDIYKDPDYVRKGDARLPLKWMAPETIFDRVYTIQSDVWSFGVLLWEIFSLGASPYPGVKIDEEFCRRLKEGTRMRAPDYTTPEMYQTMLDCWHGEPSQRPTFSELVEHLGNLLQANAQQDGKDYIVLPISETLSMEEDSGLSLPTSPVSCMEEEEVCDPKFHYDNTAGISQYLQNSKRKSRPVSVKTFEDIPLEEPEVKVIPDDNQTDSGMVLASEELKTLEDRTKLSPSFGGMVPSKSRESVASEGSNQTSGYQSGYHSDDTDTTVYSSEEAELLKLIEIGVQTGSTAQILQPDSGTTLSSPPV
Chain of cKit (P10721 26-976): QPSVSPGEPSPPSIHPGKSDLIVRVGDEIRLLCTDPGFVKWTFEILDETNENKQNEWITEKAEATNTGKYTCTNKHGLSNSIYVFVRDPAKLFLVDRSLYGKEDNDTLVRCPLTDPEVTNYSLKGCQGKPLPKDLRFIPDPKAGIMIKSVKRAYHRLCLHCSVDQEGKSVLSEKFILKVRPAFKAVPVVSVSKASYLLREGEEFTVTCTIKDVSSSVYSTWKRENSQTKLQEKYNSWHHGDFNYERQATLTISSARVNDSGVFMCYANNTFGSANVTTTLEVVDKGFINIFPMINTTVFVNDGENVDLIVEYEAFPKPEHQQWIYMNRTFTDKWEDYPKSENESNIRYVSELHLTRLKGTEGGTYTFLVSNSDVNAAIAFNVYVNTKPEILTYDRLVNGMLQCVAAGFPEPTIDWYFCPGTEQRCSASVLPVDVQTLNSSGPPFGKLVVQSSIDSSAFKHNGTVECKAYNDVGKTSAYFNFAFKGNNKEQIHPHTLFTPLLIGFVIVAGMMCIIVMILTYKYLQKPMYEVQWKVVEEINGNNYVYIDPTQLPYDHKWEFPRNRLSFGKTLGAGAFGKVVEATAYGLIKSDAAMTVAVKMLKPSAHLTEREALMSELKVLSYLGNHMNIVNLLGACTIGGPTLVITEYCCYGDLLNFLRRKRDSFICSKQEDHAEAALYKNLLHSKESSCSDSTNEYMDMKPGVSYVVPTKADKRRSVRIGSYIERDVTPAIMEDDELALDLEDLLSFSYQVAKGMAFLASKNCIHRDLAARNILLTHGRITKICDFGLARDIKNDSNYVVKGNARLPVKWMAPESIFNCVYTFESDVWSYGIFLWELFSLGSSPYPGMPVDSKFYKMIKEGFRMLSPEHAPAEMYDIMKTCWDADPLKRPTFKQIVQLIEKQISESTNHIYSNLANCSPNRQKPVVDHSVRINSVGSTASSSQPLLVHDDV
Chain of C-Raf (P04049 whole entry Y340D/Y341D, form open): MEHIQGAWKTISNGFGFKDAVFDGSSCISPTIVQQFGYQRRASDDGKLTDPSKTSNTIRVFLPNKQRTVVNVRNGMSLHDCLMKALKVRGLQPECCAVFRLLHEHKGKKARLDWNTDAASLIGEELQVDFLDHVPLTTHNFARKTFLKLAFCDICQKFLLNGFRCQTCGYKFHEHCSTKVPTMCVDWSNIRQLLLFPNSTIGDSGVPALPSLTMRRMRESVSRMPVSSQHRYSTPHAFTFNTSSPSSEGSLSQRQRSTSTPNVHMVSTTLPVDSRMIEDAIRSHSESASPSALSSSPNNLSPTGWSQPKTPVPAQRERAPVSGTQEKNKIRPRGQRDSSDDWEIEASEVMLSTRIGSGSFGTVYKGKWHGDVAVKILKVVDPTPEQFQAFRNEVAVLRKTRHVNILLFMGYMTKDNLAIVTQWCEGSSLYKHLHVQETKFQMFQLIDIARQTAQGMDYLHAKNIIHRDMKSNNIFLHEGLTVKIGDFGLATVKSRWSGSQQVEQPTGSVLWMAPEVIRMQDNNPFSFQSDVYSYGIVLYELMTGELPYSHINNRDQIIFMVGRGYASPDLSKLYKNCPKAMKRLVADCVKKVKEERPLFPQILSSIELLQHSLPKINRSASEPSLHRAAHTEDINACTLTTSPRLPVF
T2 sequence (P15056 whole entry): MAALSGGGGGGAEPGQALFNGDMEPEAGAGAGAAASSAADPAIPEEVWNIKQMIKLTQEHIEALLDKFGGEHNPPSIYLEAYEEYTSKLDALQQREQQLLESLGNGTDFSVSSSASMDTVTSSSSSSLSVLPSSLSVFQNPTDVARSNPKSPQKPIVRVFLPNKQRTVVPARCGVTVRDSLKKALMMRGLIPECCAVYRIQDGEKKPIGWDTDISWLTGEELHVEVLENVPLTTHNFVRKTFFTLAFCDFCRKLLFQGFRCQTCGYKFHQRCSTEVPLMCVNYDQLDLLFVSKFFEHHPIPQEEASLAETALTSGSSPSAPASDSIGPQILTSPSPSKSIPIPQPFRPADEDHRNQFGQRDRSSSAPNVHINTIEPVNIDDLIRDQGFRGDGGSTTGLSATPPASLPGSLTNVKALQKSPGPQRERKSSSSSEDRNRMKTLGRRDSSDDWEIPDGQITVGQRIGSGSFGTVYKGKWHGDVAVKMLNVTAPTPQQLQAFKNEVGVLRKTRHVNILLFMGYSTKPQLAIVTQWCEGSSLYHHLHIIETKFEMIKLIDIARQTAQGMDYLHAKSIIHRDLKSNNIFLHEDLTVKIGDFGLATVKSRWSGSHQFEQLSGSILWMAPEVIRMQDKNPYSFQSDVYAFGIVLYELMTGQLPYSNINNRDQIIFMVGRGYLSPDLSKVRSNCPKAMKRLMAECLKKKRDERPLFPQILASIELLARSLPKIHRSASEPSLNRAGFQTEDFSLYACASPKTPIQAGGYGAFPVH

SMILES	pIC50 (HDAC)	pIC50 (VEGFR2)	other results
O=C(CCCCCn1ccc(Oc2ccc(NC(=O)Nc3ccc(Cl)c(C(F)(F)F)c3)cc2)cc1=O)NO [Compound 27]	6.00 to 7.00		
O=C(CCCCn1ccc(Oc2ccc(NC(=O)Nc3ccc(Cl)c(C(F)(F)F)c3)cc2)cc1=O)NO [Compound 26]	5.00 to 6.00		
O=C(CCCOc1cc(Oc2ccc(NC(=O)Nc3ccc(Cl)c(C(F)(F)F)c3)cc2)ccn1)NO [Compound 31]	5.00 to 6.00		
O=C(CCCCOc1cc(Oc2ccc(NC(=O)Nc3ccc(Cl)c(C(F)(F)F)c3)cc2)ccn1)NO [Compound 32]	6.00 to 7.00	> 7.00	
O=C(CCCCCNCc1cc(Oc2ccc(NC(=O)Nc3ccc(Cl)c(C(F)(F)F)c3)cc2)ccn1)NO [Compound 16, 6-((4-(4-(3-(4-chloro-3-(trifluoromethyl)phenyl)ureido)phenoxy)pyridin-2-yl)methylamino)-N-hydroxyhexanamide]	6.00 to 7.00		
O=C(CCCCC(=O)Nc1cc(Oc2ccc(NC(=O)Nc3ccc(Cl)c(C(F)(F)F)c3)cc2)ccn1)NO [Compound 10, 1-(4-chloro-3-(trifluoromethyl)phenyl)-3-(4-(2-(6-(hydroxyamino)-6-oxohexanamido)pyridin-4-yloxy)phenyl)urea]	5.00 to 6.00		
O=C(CCC(=O)NCc1cc(Oc2ccc(NC(=O)Nc3ccc(Cl)c(C(F)(F)F)c3)cc2)ccn1)NO [Compound 19, N^1-((4-(4-(3-(4-chloro-3-(trifluoromethyl)phenyl)ureido)phenoxy)pyridin-2-yl)methyl)-N^4-hydroxysuccinamide]	6.00 to 7.00		
O=C(CCCCCCCNCc1cc(Oc2ccc(NC(=O)Nc3ccc(Cl)c(C(F)(F)F)c3)cc2)ccn1)NO [Compound 18, 8-((4-(4-(3-(4-Chloro-3-(trifluoromethyl)phenyl)ureido)phenoxy)pyridin-2-yl)methylamino)-N-hydroxyoctanamide]	6.00 to 7.00	6.00 to 7.00	
O=C(CCCCCCC(=O)NCc1cc(Oc2ccc(NC(=O)Nc3ccc(Cl)c(C(F)(F)F)c3)cc2)ccn1)NO [Compound 23, N^1-((4-(4-(3-(4-chloro-3(trifluoromethyl)phenyl)ureido)phenoxy)pyridin-2-yl)methyl)-N^8-hydroxyoctanediamide]	6.00 to 7.00	> 7.00	pIC50 (cKit): > 7.00; pIC50 (PDGFRβ): 6.00 to 7.00
O=C(CCCCC(=O)NCc1cc(Oc2ccc(NC(=O)Nc3ccc(Cl)c(C(F)(F)F)c3)cc2)ccn1)NO [Compound 21, N^1-((4-(4-(3-(4-chloro-3(trifluoromethyl)phenyl)ureido)phenoxy)pyridin-2-yl)methyl)-N^6-hydroxyadipamide]	6.00 to 7.00	> 7.00	pIC50 (cKit): > 7.00; pIC50 (PDGFRβ): 6.00 to 7.00
O=C(CCCCCCCNC(=O)c1cc(Oc2ccc(NC(=O)Nc3ccc(Cl)c(C(F)(F)F)c3)cc2)ccn1)NO [Compound 7, 4-(4-(3-(4-chloro-3-(trifluoromethyl)phenyl)ureido)phenoxy)-N-(8-(hydroxyamino)-8-oxooctyl)picolinamide]	5.00 to 6.00	6.00 to 7.00	pIC50 (cKit): > 7.00; pIC50 (PDGFRβ): 6.00 to 7.00
O=C(CCCn1ccc(Oc2ccc(NC(=O)Nc3ccc(Cl)c(C(F)(F)F)c3)cc2)cc1=O)NO [Compound 25]	5.00 to 6.00		
O=C(CCCCCCNCc1cc(Oc2ccc(NC(=O)Nc3ccc(Cl)c(C(F)(F)F)c3)cc2)ccn1)NO [Compound 17, 7-((4-(4-(3-(4-chloro-3-(trifluoromethyl)phenyl)ureido)phenoxy)pyridin-2-yl)methylamino)-N-hydroxyheptanamide]	6.00 to 7.00	6.00 to 7.00	
O=C(CCCCCNC(=O)c1cc(Oc2ccc(NC(=O)Nc3ccc(Cl)c(C(F)(F)F)c3)cc2)ccn1)NO [Compound 5, 4-(4-(3-(4-Chloro-3-(trifluoromethyl)phenyl)ureido)phenoxy)-N-(6-(hydroxyamino)-6-oxohexyl)picolinamide]	6.00 to 7.00	> 7.00	pIC50 (C-Raf): 5.00 to 6.00; pIC50 (B-Raf): 5.00 to 6.00; pIC50 (cKit): > 7.00; pIC50 (PDGFRβ): 6.00 to 7.00
O=C(CCCCCOc1cc(Oc2ccc(NC(=O)Nc3ccc(Cl)c(C(F)(F)F)c3)cc2)ccn1)NO [Compound 33]	5.00 to 6.00		
O=C(CCCNC(=O)c1cc(Oc2ccc(NC(=O)Nc3ccc(Cl)c(C(F)(F)F)c3)cc2)ccn1)NO [Compound 3, 4-(4-(3-(4-chloro-3-(trifluoromethyl)phenyl)ureido)phenoxy)-N-(4-(hydroxyamino)-4-oxobutyl)picolinamide]	5.00 to 6.00		
C[C@@H](NC(=O)c1cc(Oc2ccc(NC(=O)Nc3ccc(Cl)c(C(F)(F)F)c3)cc2)ccn1)C(=O)NO [Compound 1, (R)-4-(4-(3-(4-chloro-3-(trifluoromethyl)phenyl)ureido)phenoxy)-N-(1-(hydroxyamino)-1-oxopropan-2-yl)picolinamide]	5.00 to 6.00		
O=C(CCCCCCNC(=O)c1cc(Oc2ccc(NC(=O)Nc3ccc(Cl)c(C(F)(F)F)c3)cc2)ccn1)NO [Compound 6, 4-(4-(3-(4-chloro-3-(trifluoromethyl)phenyl)ureido)phenoxy)-N-(7-(hydroxyamino)-7-oxoheptyl)picolinamide]	6.00 to 7.00		
O=C(CCCCCCC(=O)Nc1cc(Oc2ccc(NC(=O)Nc3ccc(Cl)c(C(F)(F)F)c3)cc2)ccn1)NO [Compound 12, 1-(4-chloro-3-(trifluoromethyl)phenyl)-3-(4-(2-(8-(hydroxyamino)-8-oxooctanamido)pyridin-4-yloxy)phenyl)urea]	6.00 to 7.00	> 7.00	pIC50 (C-Raf): > 7.00; pIC50 (cKit): > 7.00; pIC50 (PDGFRβ): > 7.00
O=C(Nc1ccc(Oc2ccnc(C(=O)NO)c2)cc1)Nc1ccc(Cl)c(C(F)(F)F)c1 [Compound 36, 4-(4-(3-(4-chloro-3-(trifluoromethyl)phenyl)ureido)phenoxy)-N-hydroxypicolinamide]	< 5.00	5.00 to 6.00	
O=C(CCCCCCn1ccc(Oc2ccc(NC(=O)Nc3ccc(Cl)c(C(F)(F)F)c3)cc2)cc1=O)NO [Compound 28]	6.00 to 7.00		
O=C(CCCC(=O)Nc1cc(Oc2ccc(NC(=O)Nc3ccc(Cl)c(C(F)(F)F)c3)cc2)ccn1)NO [Compound 9, 1-(4-chloro-3-(trifluoromethyl)phenyl)-3-(4-(2-(5-(hydroxyamino)-5-oxopentanamido)pyridin-4-yloxy)phenyl)urea]	6.00 to 7.00	> 7.00	
O=C(CCCC(=O)NCc1cc(Oc2ccc(NC(=O)Nc3ccc(Cl)c(C(F)(F)F)c3)cc2)ccn1)NO [Compound 20, N^1-((4-(4-(3-(4-chloro-3(trifluoromethyl)phenyl)ureido)phenoxy)pyridin-2-yl)methyl)-N^5-hydroxyglutaramide]	6.00 to 7.00	> 7.00	
O=C(CCCCCCOc1cc(Oc2ccc(NC(=O)Nc3ccc(Cl)c(C(F)(F)F)c3)cc2)ccn1)NO [Compound 34]	6.00 to 7.00		
